Key:
Test in all cases: Test D controlled growth environment herbicide test, pre- and postemergence
Assay type in all cases: in vivo
[1] = system: wheat, spring (spring wheat, Triticum aestivum)
Method in brief: (§1)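 Species sown in silt loam and sprayed preemergence, or grown in peat-based medium to 2–18 cm (1- to 4-leaf stage) and sprayed postemergence, with compounds in non-phytotoxic solvent plus surfactant. Visual injury scored versus controls after 14–21 d in a controlled environment, 0 (no effect) to 100 (complete control).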

[2] = system: ryegrass, Italian (Italian ryegrass, Lolium multiflorum)
Method in brief: as §1

[3] = system: windgrass (Apera spica-venti)
Method in brief: as §1

[4] = system: pigweed (Amaranthus retroflexus)
Method in brief: as §1

[5] = system: blackgrass (Alopecurus myosuroides)
Method in brief: as §1

[6] = system: wheat, winter (winter wheat, Triticum aestivum)
Method in brief: as §1

[7] = system: Russian thistle (Salsola kali)
Method in brief: as §1

[8] = system: field poppy (Papaver rhoeas)
Method in brief: as §1

[9] = system: chickweed (common chickweed, Stellaria media)
Method in brief: as §1

[10] = system: oilseed rape (Brassica napus)
Method in brief: as §1

[11] = system: deadnettle (henbit deadnettle, Lamium amplexicaule)
Method in brief: as §1

[12] = system: radish, wild (wild radish, Raphanus raphanistrum)
Method in brief: as §1

[13] = system: field violet (Viola arvensis)
Method in brief: as §1

[14] = Postemergence, 31 g ai/ha, scale 0 to 100 (0 no effect, 100 complete control)
[15] = Postemergence, 125 g ai/ha, visual rating on scale 0 (no effect) to 100 (complete control), 14 to 21 d
[16] = Postemergence, 250 g ai/ha, scale 0 to 100 (0 no effect, 100 complete control)
[17] = Preemergence, 125 g ai/ha, scale 0 to 100 (0 no effect, 100 complete control)
[18] = Preemergence, 250 g ai/ha, scale 0 to 100 (0 no effect, 100 complete control)
[19] = postemergence, 62 g ai/ha, scale 0 to 100, 0 no effect, 100 complete control

## CC(=O)Oc1c(C)nn(C)c(=O)c1-c1c(C)cc(C)c2ccccc12 [Compound 153]
[1]; [14]
  Wheat, Spring plant response rating: 20
[1]; [15]
  Plant response rating, Wheat, Spring: 40
[1]; [16]
  Plant response rating, Wheat, Spring: 50
[1]; Preemergence, 31 g ai/ha
  Plant response rating (scale of 0 to 100), Wheat, Spring: 25
[1]; Preemergence, 62 g ai/ha
  Plant response rating (scale of 0 to 100), Wheat, Spring: 45
[1]; [17]
  Plant response rating, Wheat, Spring: 70
[1]; [18]
  Plant response rating, Wheat, Spring: 85
[1]; [19]
  Plant response rating, Wheat, Spring: 30
[2]; [14]
  Ryegrass, Italian plant response rating: 80
[2]; [15]
  Plant response rating, Ryegrass, Italian: 90
[2]; [16]
  Plant response rating, Ryegrass, Italian: 90
[2]; Preemergence, 31 g ai/ha
  Plant response rating (scale of 0 to 100), Ryegrass, Italian: 100
[2]; Preemergence, 62 g ai/ha
  Plant response rating (scale of 0 to 100), Ryegrass, Italian: 100
[2]; [17]
  Plant response rating, Ryegrass, Italian: 100
[2]; [18]
  Plant response rating, Ryegrass, Italian: 100
[2]; [19]
  Plant response rating, Ryegrass, Italian: 90
[3]; [14]
  Windgrass plant response rating: 25
[3]; [15]
  Plant response rating, Windgrass: 65
[3]; [16]
  Plant response rating, Windgrass: 75
[3]; Preemergence, 31 g ai/ha
  Plant response rating (scale of 0 to 100), Windgrass: 75
[3]; Preemergence, 62 g ai/ha
  Plant response rating (scale of 0 to 100), Windgrass: 80
[3]; [17]
  Plant response rating, Windgrass: 80
[3]; [18]
  Plant response rating, Windgrass: 95
[3]; [19]
  Plant response rating, Windgrass: 30
[4]; [14]
  Pigweed plant response rating: 80
[4]; [15]
  Plant response rating, Pigweed: 80
[4]; [16]
  Plant response rating, Pigweed: 85
[4]; Preemergence, 31 g ai/ha
  Plant response rating (scale of 0 to 100), Pigweed: 100
[4]; Preemergence, 62 g ai/ha
  Plant response rating (scale of 0 to 100), Pigweed: 100
[4]; [17]
  Plant response rating, Pigweed: 100
[4]; [18]
  Plant response rating, Pigweed: 100
[4]; [19]
  Plant response rating, Pigweed: 75
[5]; [14]
  Blackgrass plant response rating: 65
[5]; [15]
  Plant response rating, Blackgrass: 75
[5]; [16]
  Plant response rating, Blackgrass: 80
[5]; Preemergence, 31 g ai/ha
  Plant response rating (scale of 0 to 100), Blackgrass: 75
[5]; Preemergence, 62 g ai/ha, scale 0 to 100 (0 no effect, 100 complete control)
  Plant response rating, Blackgrass: 80
[5]; [17]
  Plant response rating, Blackgrass: 85
[5]; [18]
  Plant response rating, Blackgrass: 95
[5]; [19]
  Plant response rating, Blackgrass: 70
[6]; [14]
  Wheat, Winter plant response rating: 10
[6]; [15]
  Plant response rating, Wheat, Winter: 25
[6]; [16]
  Plant response rating, Wheat, Winter: 35
[6]; Preemergence, 31 g ai/ha
  Plant response rating (scale of 0 to 100), Wheat, Winter: 5
[6]; Preemergence, 62 g ai/ha
  Plant response rating (scale of 0 to 100), Wheat, Winter: 20
[6]; [17]
  Plant response rating, Wheat, Winter: 45
[6]; [18]
  Plant response rating, Wheat, Winter: 50
[6]; [19]
  Plant response rating, Wheat, Winter: 15
[7]; [14]
  Russian Thistle plant response rating: 25
[7]; [15]
  Plant response rating, Russian Thistle: 45
[7]; [16]
  Plant response rating, Russian Thistle: 55
[7]; Preemergence, 31 g ai/ha
  Plant response rating (scale of 0 to 100), Russian Thistle: 0
[7]; Preemergence, 62 g ai/ha
  Plant response rating (scale of 0 to 100), Russian Thistle: 15
[7]; [17]
  Plant response rating, Russian Thistle: 60
[7]; [18]
  Plant response rating, Russian Thistle: 100
[7]; [19]
  Plant response rating, Russian Thistle: 20
[8]; [14]
  Field Poppy plant response rating: 75
[8]; [15]
  Plant response rating, Field Poppy: 100
[8]; [16]
  Plant response rating, Field Poppy: 100
[8]; Preemergence, 31 g ai/ha
  Plant response rating (scale of 0 to 100), Field Poppy: 100
[8]; Preemergence, 62 g ai/ha
  Plant response rating (scale of 0 to 100), Field Poppy: 100
[8]; [17]
  Plant response rating, Field Poppy: 100
[8]; [18]
  Plant response rating, Field Poppy: 100
[8]; [19]
  Plant response rating, Field Poppy: 95
[9]; [14]
  Chickweed plant response rating: 80
[9]; [15]
  Plant response rating, Chickweed: 85
[9]; [16]
  Plant response rating, Chickweed: 100
[9]; Preemergence, 31 g ai/ha
  Plant response rating (scale of 0 to 100), Chickweed: 98
[9]; Preemergence, 62 g ai/ha
  Plant response rating (scale of 0 to 100), Chickweed: 100
[9]; [17]
  Plant response rating, Chickweed: 100
[9]; [18]
  Plant response rating, Chickweed: 100
[9]; [19]
  Plant response rating, Chickweed: 85
[10]; [14]
  Oilseed Rape plant response rating: 70
[10]; [15]
  Plant response rating, Oilseed Rape: 85
[10]; [16]
  Plant response rating, Oilseed Rape: 98
[10]; Preemergence, 31 g ai/ha
  Plant response rating (scale of 0 to 100), Oilseed Rape: 75
[10]; Preemergence, 62 g ai/ha
  Plant response rating (scale of 0 to 100), Oilseed Rape: 85
[10]; [17]
  Plant response rating, Oilseed Rape: 90
[10]; [18]
  Plant response rating, Oilseed Rape: 100
[10]; [19]
  Plant response rating, Oilseed Rape: 85
[11]; [14]
  Deadnettle plant response rating: 70
[11]; [15]
  Plant response rating, Deadnettle: 80
[11]; [16]
  Plant response rating, Deadnettle: 90
[11]; Preemergence, 31 g ai/ha
  Plant response rating (scale of 0 to 100), Deadnettle: 98
[11]; Preemergence, 62 g ai/ha
  Plant response rating (scale of 0 to 100), Deadnettle: 100
[11]; [17]
  Plant response rating, Deadnettle: 100
[11]; [18]
  Plant response rating, Deadnettle: 100
[11]; [19]
  Plant response rating, Deadnettle: 75
[12]; [14]
  Radish, Wild plant response rating: 80
[12]; [15]
  Plant response rating, Radish, Wild: 100
[12]; [16]
  Plant response rating, Radish, Wild: 100
[12]; Preemergence, 31 g ai/ha
  Plant response rating (scale of 0 to 100), Radish, Wild: 80
[12]; Preemergence, 62 g ai/ha
  Plant response rating (scale of 0 to 100), Radish, Wild: 98
[12]; [17]
  Plant response rating, Radish, Wild: 98
[12]; [18]
  Plant response rating, Radish, Wild: 100
[12]; [19]
  Plant response rating, Radish, Wild: 85
[13]; [14]
  Field Violet plant response rating: 85
[13]; [15]
  Plant response rating, Field Violet: 95
[13]; [16]
  Plant response rating, Field Violet: 100
[13]; Preemergence, 31 g ai/ha
  Plant response rating (scale of 0 to 100), Field Violet: 100
[13]; Preemergence, 62 g ai/ha
  Plant response rating (scale of 0 to 100), Field Violet: 100
[13]; [17]
  Plant response rating, Field Violet: 100
[13]; [18]
  Plant response rating, Field Violet: 100
[13]; [19]
  Plant response rating, Field Violet: 90

Reference: US10597388B2, “Pyridazinone herbicides” (FMC CORPORATION, priority 2014, dated 2020)
